Where two headings read alike, the source gives them in different places.
Test system: p-sites in DNA-damaged AsPC-1 cells
Test: decryptM dose-resolved phosphoproteomics of ATRi in GEM-pre-treated cells
Assay type: cell-based, human
Settings: for EC50: Homo sapiens
Protocol: Cell culture medium was replaced 24 h after seeding. […] For time point 0, AsPC-1 cells were treated with a vehicle and lysed immediately. The final DMSO concentration in all experiments was 0.2%.
Briefly, cells were washed twice with PBS and lysed in SDS lysis buffer (2% SDS in 40 mM Tris-HCl, pH 7.6), followed by sonication for 10 min (30 s on/30 s off) using a Bioruptor (Diagenode). For DNA hydrolysis, samples were boiled at 95 °C for 10 min and incubated with 2% trifluoroacetic acid (TFA) for 1 min, before the reaction was quenched using 4% N-methylmorpholine. Lysate was cleared by centrifugation at 11,000 × g for 5 min and protein concentration was determined using the Pierce BCA Protein Assay Kit (Thermo Scientific).
Using 70% ethanol, samples were then precipitated on beads, followed by washing thrice with 80% ethanol and once with 100% acetonitrile. Subsequently, proteins were reduced and alkylated using 10 mM TCEP, 50 mM chloroacetamide, and 2 mM CaCl2 in 100 mM EPPS/NaOH, pH 8.5 for 1 h at 37 °C, followed by tryptic digestion at 37 °C for 16 h. Peptides were acidified with 1% TFA and desalted on Chromabond HLB plates (30 µm particle size, 10 mg capacity, Machery-Nagel), using 0.1% TFA for equilibration and sample loading, and 0.1% TFA in 70% acetonitrile for peptide elution. Recovered peptides were freeze-dried by vacuum-centrifugation and stored at −20 °C.
Depending on the experiment, samples were either labeled with TMT-11plex (decryptM), TMT-10plex (non-decryptM, quadruplicates), or TMTpro reagent (time-series; all Thermo Scientific). Therefore, dried peptides were reconstituted in 15 µl 100 mM EPPS, pH 8.5 and each treatment condition was labeled with one channel of the respective TMT reagent (5 µl of 25 µg/µl reagent, Appendix Tables S4–S6). The reaction was incubated for 1 h at 23 °C and subsequently quenched with 0.4% hydroxylamine. Then, samples were pooled, acidified with 1% formic acid, and freeze-dried by vacuum-centrifugation. Labeled peptide pools were desalted on C18 Sep-Pak cartridges (37–55 µm particle size, 50 mg capacity, Waters), using 0.1% formic acid as equilibration solvent, and 0.1% formic acid in 60% acetonitrile was used as elution solvent. Eluted peptides were freeze-dried and stored at −20 °C until further use.
Basic reversed-phase (bRP) fractionation of peptides was performed on a Vanquish HPLC (Thermo Scientific). In short, dried peptides were reconstituted in 200 µl 25 mM ammonium bicarbonate, pH 8.0 and directly injected onto a Waters BEH130 XBridge C18 column (3.5 µm, 4.6 × 250 mm). […] Using an automated fraction collector, 96 fractions were collected between min 7 and 55 after injection. Fractions were acidified with 1% formic acid and pooled to 48 fractions, before they were freeze-dried and stored at −20 °C.
Immobilized metal ion affinity chromatography (IMAC) enrichment of phosphorylated peptides was performed on the Bravo automated liquid handling platform using AssayMAP Fe(III)-NTA cartridges (Agilent). In brief, the 48 dried peptide fractions were reconstituted in 0.1% TFA in 80% acetonitrile and further pooled to 12 fractions (200 µl final volume per well). The phosphopeptide enrichment protocol embedded in the Agilent AssayMAP Bravo Protein Sample Prep Workbench v2.0 software was run. Thereby, the cartridges were first primed with 150 μl 0.1% TFA in acetonitrile at 300 μl/min, and equilibrated with 150 μl 0.1% TFA in 80% acetonitrile at 10 μl/min. Then, pooled fractions were loaded at 5 µl/min and further washed three times with 150 μl 0.1% TFA in 80% acetonitrile at 50 μl/min. Enriched peptides were eluted with 60 μl 1% ammonium hydroxide at 5 μl/min.

SMILES: CNCc1ccc(-c2cc(-c3nc(-c4ccc(S(=O)(=O)C(C)C)cc4)cnc3N)on2)cc1 [Berzosertib]
- Log2 PTM response (GEM+ATRi vs. GEM) (AASDHPPT-pS258): -2
- Log2 PTM response (GEM+ATRi vs. GEM) (BRCA1-pS1239): -1.2
- Log2 PTM response (GEM+ATRi vs. GEM) (BRD8-pS621): -2.5
- Log2 PTM response (GEM+ATRi vs. GEM) (CDKN2AIP-pS198): -2
- Log2 PTM response (GEM+ATRi vs. GEM) (CHEK1-pS317): -2.8
- Log2 PTM response (GEM+ATRi vs. GEM) (CHEK1-pS468): -2.9
- Log2 PTM response (GEM+ATRi vs. GEM) (DHX9-pS321): -2.3
- Log2 PTM response (GEM+ATRi vs. GEM) (EXO1-pS714): -2.7
- Log2 PTM response (GEM+ATRi vs. GEM) (FANCD2-pS319): -2.6
- Log2 PTM response (GEM+ATRi vs. GEM) (HDGF-pS103): -2.4
- Log2 PTM response (GEM+ATRi vs. GEM) (HMGA1-pS9): -3
- Log2 PTM response (GEM+ATRi vs. GEM) (HMGA1-pS36;S44): -1.4
- Log2 PTM response (GEM+ATRi vs. GEM) (HMGA1-pS44): -2.9
- Log2 PTM response (GEM+ATRi vs. GEM) (HSPA4-pS552): -2.1
- Log2 PTM response (GEM+ATRi vs. GEM) (HTATSF1-pS481): -2
- EC50 (ASPC1, read-out: EC50 of the majority of pSQ/pTQ sites): ~100 nM
- EC50 (ASPC1, read-out: pEC50 of the majority of pSQ/pTQ sites (converted)): ~100 nM
- EC50 (ASPC1, p-site dose-response in GEM-pre-treated cells, read-out: EC50, PPM1G S201): 61.6 nM
- EC50 (ASPC1, p-site dose-response in GEM-pre-treated cells, read-out: EC50, RALY S176): 124 nM
- EC50 (ASPC1, p-site dose-response in GEM-pre-treated cells, read-out: pEC50, PPM1G S201 (converted)): 61.7 nM
- EC50 (ASPC1, p-site dose-response in GEM-pre-treated cells, read-out: pEC50, RALY S176 (converted)): 126 nM
- EC50 (ASPC1, read-out: median EC50 across all drug-regulated pSQ/pTQ-sites): 188 nM
- Log2 PTM response (GEM+ATRi vs. GEM) (LRRC42-pS385): -3.3
- Log2 PTM response (GEM+ATRi vs. GEM) (NBN-pS397): -1.8
- Log2 PTM response (GEM+ATRi vs. GEM) (NBN-pS615): -0.9
- Log2 PTM response (GEM+ATRi vs. GEM) (NSUN5-pS432): -3.5
- Log2 PTM response (GEM+ATRi vs. GEM) (PELP1-pS1033): -1.4
- Log2 PTM response (GEM+ATRi vs. GEM) (PHF14-pS294): -1.9
- Log2 PTM response (GEM+ATRi vs. GEM) (PNISR-pS706): -2.2
- Log2 PTM response (GEM+ATRi vs. GEM) (PPM1G-pS201): -3.5
- Log2 PTM response (GEM+ATRi vs. GEM) (PPP6R3-pS825): -1.4
- Log2 PTM response (GEM+ATRi vs. GEM) (PSMD4-pS266): -1.6
- Log2 PTM response (GEM+ATRi vs. GEM) (RAD18-pS368): -1
- Log2 PTM response (GEM+ATRi vs. GEM) (RIF1-pS1873): -2.2
- Log2 PTM response (GEM+ATRi vs. GEM) (SNRPA-pS115): -1.2
- Log2 PTM response (GEM+ATRi vs. GEM) (TCEA1-pS100;S97): -1
- Log2 PTM response (GEM+ATRi vs. GEM) (TCEB3-pS251): -2.1
- Log2 PTM response (GEM+ATRi vs. GEM) (TOPBP1-pS1504): -1.9
- Log2 PTM response (GEM+ATRi vs. GEM) (TSEN34-pS136): -1.2
- Log2 PTM response (GEM+ATRi vs. GEM) (UHRF1-pS393): -2.3
- Log2 PTM response (GEM+ATRi vs. GEM) (UIMC1-pS171): -1.5
- Log2 PTM response (GEM+ATRi vs. GEM) (ZC3H14-pS135): -1.5
- ATRi Regulation (Curve), PPM1G S201 (classified by CurveCurator): down
- ATRi Regulation (Curve), RALY S176 (classified by CurveCurator): down
- PTM response (norm. to 1 µM GEM) (source data 4B (p-site not named), 1 µM GEM + ATRi 1 nM): 1.08
- PTM response (norm. to 1 µM GEM) (source data 4B (p-site not named), 1 µM GEM + ATRi 3 nM): 1.06
- PTM response (norm. to 1 µM GEM) (source data 4B (p-site not named), 1 µM GEM + ATRi 10 nM): 0.94
- PTM response (norm. to 1 µM GEM) (source data 4B (p-site not named), 1 µM GEM + ATRi 30 nM): 1.20
- PTM response (norm. to 1 µM GEM) (source data 4B (p-site not named), 1 µM GEM + ATRi 100 nM): 0.78
- PTM response (norm. to 1 µM GEM) (source data 4B (p-site not named), 1 µM GEM + ATRi 300 nM): 0.40
- PTM response (norm. to 1 µM GEM) (source data 4B (p-site not named), 1 µM GEM + ATRi 1000 nM): 0.20
- PTM response (norm. to 1 µM GEM) (source data 4B (p-site not named), 1 µM GEM + ATRi 3000 nM): 0.14
- PTM response (norm. to 1 µM GEM) (source data 4B (p-site not named), 1 µM GEM + ATRi 10000 nM): 0.15
- PTM response (norm. to 1 µM GEM) (source data 5B (p-site not named), 1 µM GEM + ATRi 1 nM): 0.81
- PTM response (norm. to 1 µM GEM) (source data 5B (p-site not named), 1 µM GEM + ATRi 3 nM): 0.96
- PTM response (norm. to 1 µM GEM) (source data 5B (p-site not named), 1 µM GEM + ATRi 10 nM): 0.69
- PTM response (norm. to 1 µM GEM) (source data 5B (p-site not named), 1 µM GEM + ATRi 30 nM): 0.83
- PTM response (norm. to 1 µM GEM) (source data 5B (p-site not named), 1 µM GEM + ATRi 100 nM): 0.51
- PTM response (norm. to 1 µM GEM) (source data 5B (p-site not named), 1 µM GEM + ATRi 300 nM): 0.19
- PTM response (norm. to 1 µM GEM) (source data 5B (p-site not named), 1 µM GEM + ATRi 1000 nM): 0.12
- PTM response (norm. to 1 µM GEM) (source data 5B (p-site not named), 1 µM GEM + ATRi 3000 nM): 0.13
- PTM response (norm. to 1 µM GEM) (source data 5B (p-site not named), 1 µM GEM + ATRi 10000 nM): 0.12
